Assay results: ChEMBL document CHEMBL5331050, “Spiro[benzoxazine-piperidin]-one derivatives as chitin synthase inhibitors and antifungal agents: Design, synthesis and biological evaluation” (Eur J Med Chem, 2022)
Converted amounts (≈) assume the structure as drawn. *1 amine or outer side, *2 acyl side, *3 side chain or, on linkers, in order; H or OH if unused. Where a SMILES comes first, the peptide text is derived from it. Bridges are numbered along the chain shown (N, C = ends). [ ]: non-standard residue; d: D form. The star is where a group is joined. hTyr(3S-OH,4S-OH,3'-OSO3H) = N[C@H](C(=O)O)[C@H](O)[C@@H](O)c1ccc(O)c(OS(=O)(=O)O)c1; Orn(4R-OH,5R-OH) = O=C([C@H](C[C@@H](O)[C@@H](O)N[*:3])N[*:1])[*:2]; Pro(3S-OH,4S-Me) = C[C@H]1CN[C@H](C(=O)O)[C@H]1O; X1 = CCCCCOc1ccc(-c2cc(-c3ccc(C(=O)*)cc3)no2)cc1; Gln(3R-OH) = NC(=O)C[C@@H](O)[C@H](N)C(=O)O; Hyp = O=C(O)[C@@H]1C[C@@H](O)CN1

What was measured:
Candida albicans [1] = assay: Antifungal activity against Candida albicans ATCC 76615 assessed as fungal growth inhibition incubated for 24 hrs by CLSI protocol based broth microdilution method; assay type: functional
Cryptococcus neoformans [2] = assay: Antifungal activity against Cryptococcus neoformans ATCC 208821 assessed as fungal growth inhibition incubated for 24 hrs by CLSI protocol based broth microdilution method; assay type: functional
Cryptococcus neoformans [3] = assay: Antifungal activity against Cryptococcus neoformans ATCC 208821 assessed as disruption of fungal wall by measuring fungal growth incubated for 24 hrs in the presence of sorbitol; assay type: functional
Aspergillus flavus [4] = assay: Antifungal activity against Aspergillus flavus ATCC 16870 assessed as fungal growth inhibition incubated for 24 hrs by CLSI protocol based broth microdilution method; assay type: functional
Candida tropicalis = assay: Inhibition of Candida tropicalis ATCC 750 chitin synthase using UDP-GlcNAc as substrate at 300 ug/ml incubated for 1 hrs by absorbance based assay relative to control; details: dose 300.0 µg/ml
Candida albicans [5] = assay: Antifungal activity against Candida albicans ATCC 76615 assessed as disruption of fungal wall by measuring fungal growth incubated for 24 hrs in the presence of sorbitol; assay type: functional
[6] = Inhibition of Candida tropicalis ATCC 750 chitin synthase using UDP-GlcNAc as substrate incubated for 1 hrs by absorbance based assay
Aspergillus fumigatus [7] = assay: Antifungal activity against Aspergillus fumigatus GIMCC 3.19 assessed as fungal growth inhibition incubated for 24 hrs by CLSI protocol based broth microdilution method; assay type: functional
Aspergillus flavus [8] = assay: Antifungal activity against Aspergillus flavus ATCC 16870 assessed as disruption of fungal wall by measuring fungal growth incubated for 24 hrs in the presence of sorbitol; assay type: functional
Aspergillus fumigatus [9] = assay: Antifungal activity against Aspergillus fumigatus GIMCC 3.19 assessed as disruption of fungal wall by measuring fungal growth incubated for 24 hrs in the presence of sorbitol; assay type: functional
Aspergillus fumigatus [10] = assay: Synergistic antifungal activity against Aspergillus fumigatus GIMCC 3.19 assessed as fractional inhibitory concentration index incubated for 24 hrs in the presence of fluconazole by broth dilution based checkerboard method; assay type: functional
Aspergillus flavus [11] = assay: Synergistic antifungal activity against Aspergillus flavus ATCC 16870 assessed as fractional inhibitory concentration index incubated for 24 hrs in the presence of fluconazole by broth dilution based checkerboard method; assay type: functional
Aspergillus fumigatus [12] = assay: Synergistic antifungal activity against Aspergillus fumigatus GIMCC 3.19 assessed as fungal growth inhibition incubated for 24 hrs in the presence of fluconazole by broth dilution based checkerboard method; assay type: functional
Aspergillus flavus [13] = assay: Synergistic antifungal activity against Aspergillus flavus ATCC 16870 assessed as fungal growth inhibition incubated for 24 hrs in the presence of fluconazole by broth dilution based checkerboard method; assay type: functional
Cryptococcus neoformans [14] = assay: Synergistic antifungal activity against Cryptococcus neoformans ATCC 208821 assessed as fungal growth inhibition incubated for 24 hrs in the presence of fluconazole by broth dilution based checkerboard method; assay type: functional
Candida albicans [15] = assay: Antifungal activity against micafungin-resistant Candida albicans ATCC 76615R assessed as fungal growth inhibition; assay type: functional
[16] = Selectivity ratio of MIC for antifungal activity against Candida albicans ATCC 76615 assessed as disruption of fungal wall by measuring fungal growth incubated for 24 hrs in the presence of sorbitol to MIC for antifungal activity against Candida albicans ATCC 76615 assessed as fungal growth inhibition; assay type: functional
Candida albicans [17] = assay: Synergistic antifungal activity against Candida albicans ATCC 76615 assessed as fractional inhibitory concentration index incubated for 24 hrs in the presence of fluconazole by broth dilution based checkerboard method; assay type: functional
Candida albicans [18] = assay: Synergistic antifungal activity against Candida albicans ATCC 76615 assessed as fungal growth inhibition incubated for 24 hrs in the presence of fluconazole by broth dilution based checkerboard method; assay type: functional
Cryptococcus neoformans [19] = assay: Synergistic antifungal activity against Cryptococcus neoformans ATCC 208821 assessed as fractional inhibitory concentration index incubated for 24 hrs in the presence of fluconazole by broth dilution based checkerboard method; assay type: functional
Cryptococcus neoformans [20] = assay: Antifungal activity against fluconazole-resistant Cryptococcus neoformans ATCC 208821R assessed as fungal growth inhibition; assay type: functional
Candida albicans [21] = assay: Antifungal activity against fluconazole-resistant Candida albicans ATCC 76615R assessed as fungal growth inhibition; assay type: functional
[22] = Inhibition of chitin synthase (unknown origin); parameters: species or system Fungi

MIC (Aspergillus fumigatus [12]) [µg/mL] | MIC (Aspergillus flavus [13]) [µg/mL] | MIC (Cryptococcus neoformans [14]) [µg/mL] | MIC (Candida albicans [18]) [µg/mL] | Structure (SMILES) | MIC (Candida albicans [1]) [µg/mL] | MIC (Cryptococcus neoformans [2]) [µg/mL] | MIC (Cryptococcus neoformans [3]) [µg/mL] | MIC (Aspergillus flavus [4]) [µg/mL] | inhibition (Candida tropicalis) [%] | IC50 [6] [µM] | MIC (Aspergillus fumigatus [7]) [µg/mL] | fractional inhibitory concentration index (FICI) (Aspergillus fumigatus [10]) | fractional inhibitory concentration index (FICI) (Aspergillus flavus [11]) | MIC (Candida albicans [15]) [µg/mL] | fractional inhibitory concentration index (FICI) (Candida albicans [17]) | fractional inhibitory concentration index (FICI) (Cryptococcus neoformans [19]) | also measured
26 | 64 | 16 | 32 | COc1ccc2c(c1)C1(CCN(C(=O)/C=C/C(=O)Nc3ccccc3)CC1)OC(=O)N2 | 64 (≈ 152 µM) | 64 (≈ 152 µM) | – | 53.3 (≈ 127 µM) | 69 | 280 | 53.3 (≈ 127 µM) | 0.55 | 1.125 | – | 1 | 1.125 | –
26 | 128 | 32 | 6.67 | COc1ccc(NC(=O)/C=C/C(=O)N2CCC3(CC2)OC(=O)Nc2ccc(OC)cc23)cc1 | 64 (≈ 142 µM) | 256 (≈ 567 µM) | – | 64 (≈ 142 µM) | 82 | 210 | 128 (≈ 284 µM) | 1.125 | 3 | – | 1.1 | 0.625 | –
32 | 16 | 32 | 16 | COc1ccc2c(c1)C1(CCN(C(=O)/C=C/C(=O)Nc3ccc([N+](=O)[O-])cc3OC)CC1)OC(=O)N2 | 128 (≈ 258 µM) | 64 (≈ 129 µM) | > 512 | 42.7 (≈ 85.9 µM) | 86 | 100 | 64 (≈ 129 µM) | 1.5 | 1.37 | – | 1.13 | 1 | MIC (Aspergillus flavus [8]): > 512 µg/mL; MIC (Aspergillus fumigatus [9]): 512 µg/mL
64 | 13.3 | 16 | 16 | COc1ccc2c(c1)C1(CCN(C(=O)/C=C/C(=O)Nc3ccccc3Cl)CC1)OC(=O)N2 | 16 (≈ 35.1 µM) | 32 (≈ 70.2 µM) | – | 32 (≈ 70.2 µM) | 36 | – | 32 (≈ 70.2 µM) | 2 | 1.42 | – | 1.125 | 0.625 | –

More lines, now with the values behind:

Structure (SMILES) | MIC (Aspergillus fumigatus [12]) [µg/mL] | MIC (Aspergillus flavus [13]) [µg/mL] | MIC (Cryptococcus neoformans [14]) [µg/mL] | MIC (Candida albicans [18]) [µg/mL] | MIC (Candida albicans [1]) [µg/mL] | MIC (Cryptococcus neoformans [2]) [µg/mL] | MIC (Cryptococcus neoformans [3]) [µg/mL] | MIC (Aspergillus flavus [4]) [µg/mL] | inhibition (Candida tropicalis) [%] | IC50 [6] [µM] | MIC (Aspergillus fumigatus [7]) [µg/mL] | fractional inhibitory concentration index (FICI) (Aspergillus fumigatus [10]) | fractional inhibitory concentration index (FICI) (Aspergillus flavus [11]) | MIC (Candida albicans [15]) [µg/mL] | fractional inhibitory concentration index (FICI) (Candida albicans [17]) | fractional inhibitory concentration index (FICI) (Cryptococcus neoformans [19]) | also measured
NC(=O)OC[C@H](O)[C@@H](O)[C@H](N)C(=O)N[C@H](C(=O)O)[C@H]1O[C@@H](n2cc(CO)c(=O)[nH]c2=O)[C@H](O)[C@@H]1O [POLYOXIN B] | – | – | – | – | 64 (≈ 126 µM) | 64 (≈ 126 µM) | > 512 | 64 (≈ 126 µM) | 85 | 80 | 32 (≈ 63.1 µM) | – | – | – | – | – | MIC (Candida albicans [5]): 512 µg/mL; MIC (Aspergillus flavus [8]): > 512 µg/mL; MIC (Aspergillus fumigatus [9]): 512 µg/mL
COc1ccc2c(c1)C1(CCN(C(=O)/C=C/C(=O)Nc3ccc(Br)cc3)CC1)OC(=O)N2 | 32 | 53.3 | 32 | 16 | 26.7 (≈ 53.3 µM) | 64 (≈ 128 µM) | 256 | 32 (≈ 64 µM) | 83 | 140 | 64 (≈ 128 µM) | 1.25 | 3.67 | 32 (≈ 64 µM) | 0.85 | 1 | Ratio [16]: 8; MIC (Candida albicans [5]): 256 µg/mL; MIC (Cryptococcus neoformans [20]): 53.3 µg/mL (≈ 107 µM); MIC (Candida albicans [21]): 32 µg/mL (≈ 64 µM); MIC (Aspergillus flavus [8]): 256 µg/mL; MIC (Aspergillus fumigatus [9]): 512 µg/mL
O=C(/C=C/C(=O)N1CCCC12Cc1ccccc1NC2=O)Nc1cccc([N+](=O)[O-])c1 (centres undefined) | – | – | – | – | – | – | – | – | – | – | – | – | – | – | – | – | IC50 [22]: 100 µM
CCCCCOc1ccc(-c2cc(-c3ccc(C(=O)N[C@H]4C[C@@H](O)[C@@H](O)NC(=O)[C@@H]5[C@@H](O)[C@@H](C)CN5C(=O)[C@H]([C@H](O)CC(N)=O)NC(=O)[C@H]([C@H](O)[C@@H](O)c5ccc(O)c(OS(=O)(=O)O)c5)NC(=O)[C@@H]5C[C@@H](O)CN5C(=O)[C@H]([C@@H](C)O)NC4=O)cc3)no2)cc1 [MICAFUNGIN] (X1-[Orn(4R-OH,5R-OH)]T[Hyp][hTyr(3S-OH,4S-OH,3'-OSO3H)][Gln(3R-OH)][Pro(3S-OH,4S-Me)]; lactam 1-C) | – | – | – | – | 0.063 (≈ 0.0496 µM) | > 512 | – | – | – | – | – | – | – | 256 (≈ 202 µM) | – | – | –
COc1ccc2c(c1)C1(CCN(C(=O)/C=C/C(=O)Nc3ccc(F)c(Cl)c3)CC1)OC(=O)N2 | 8 | 64 | 32 | 64 | 64 (≈ 135 µM) | 64 (≈ 135 µM) | – | 16 (≈ 33.8 µM) | 70 | 160 | 16 (≈ 33.8 µM) | 0.75 | 1.125 | 64 (≈ 135 µM) | 2 | 0.625 | MIC (Cryptococcus neoformans [20]): 64 µg/mL (≈ 135 µM); MIC (Candida albicans [21]): 53.3 µg/mL (≈ 113 µM)
Cc1cccc(NC(=O)/C=C/C(=O)NC2Cc3ccccc3NC2=O)c1 (centres undefined) | – | – | – | – | – | – | – | – | – | – | – | – | – | – | – | – | IC50 [22]: 90 µM
COc1cc(Br)c(NC(=O)/C=C/C(=O)N2CCC3(CC2)OC(=O)Nc2ccc(OC)cc23)c(Br)c1 | – | – | – | – | 64 (≈ 105 µM) | 64 (≈ 105 µM) | 512 | 256 (≈ 420 µM) | 72 | 110 | 128 (≈ 210 µM) | – | – | 64 (≈ 105 µM) | – | – | Ratio [16]: 8; MIC (Candida albicans [5]): 512 µg/mL; MIC (Cryptococcus neoformans [20]): 64 µg/mL (≈ 105 µM); MIC (Candida albicans [21]): 64 µg/mL (≈ 105 µM)
